Entries after “also recorded” stand apart in the source; their conditions may differ. Each block holds one compound with its values, some of them ahead of it.
Experiments:
[1] = system: rat orthotopic brain tumor model; settings: rat model; cited from earlier work
[2] = system: A549 lung adenocarcinoma cells; test: Amino acid uptake and inhibition in A549 cells; format: cell-based, human; settings: A549, 30 minutes incubation
[3] = system: DU145 androgen-independent prostate carcinoma cells; test: Amino acid uptake and inhibition in DU145 cells; format: cell-based, human; settings: DU145, 30 minutes incubation
[4] = system: U87 glioblastoma cells; test: Amino acid uptake and inhibition in U87 cells; format: cell-based, human; settings: U87, 30 minutes incubation
[5] = system: MDA MB468 estrogen-independent breast carcinoma cells; test: Amino acid uptake and inhibition in MDA MB468 cells; format: cell-based, human; settings: MDA MB468, 30 minutes incubation
[6] = system: SKOV3 estrogen-positive ovarian adenocarcinoma cells; test: Amino acid uptake and inhibition in SKOV3 cells; format: cell-based, human; settings: SKOV3, 30 minutes incubation
[7] = system: A549 tumor xenograft; test: Biodistribution in A549 tumor-bearing SCID mice; format: in vivo; settings: listed as (R)-[^18F]MeFAMP 2
[8] = system: DU145 tumor xenograft; test: Biodistribution in DU145 tumor-bearing SCID mice; format: in vivo; settings: listed as (R)-[^18F]MeFAMP 2
[9] = system: U87 tumor xenograft; test: Biodistribution in U87 tumor-bearing SCID mice; format: in vivo; settings: listed as (R)-[^18F]MeFAMP 2
[10] = system: MDA MB468 tumor xenograft; test: Biodistribution in MDA MB468 tumor-bearing SCID mice; format: in vivo; settings: listed as (R)-[^18F]MeFAMP 2
[11] = system: SKOV3 tumor xenograft; test: Biodistribution in SKOV3 tumor-bearing SCID mice; format: in vivo; settings: listed as (R)-[^18F]MeFAMP 2
[12] = system: human A549, DU145, U87, MDA MB468 and SKOV3 tumor cells; test: Amino acid uptake and inhibition, summary over the five tumor cell lines; format: cell-based
[13] = system: SCID mice xenograft tumor models; format: in vivo; settings: in most cases, over tumors and time points
[14] = Brain uptake of [18F]FET in nude mice; format: in vivo

SMILES: NC1(C(=O)O)CC([18F])C1 (stereo not shown) [[^18F]FACBC, [18F]1-amino-3-fluorocyclobutane-1-carboxylic acid, reference compound]
brain uptake [1]: 0.26±0.03 %ID/g

SMILES: CN[C@@](C)(C[18F])C(=O)O [(R)-[^18F]2] [3-[^18F]fluoro-2-methyl-2-N-(methylamino)propanoic acid]
Cell uptake ([2]; 10 mM BCH): 3.1±0.1 % ID/5×10^5 cells
Cell uptake ([2]; 10 mM MeAIB): 0.4±0.04 % ID/5×10^5 cells
Cell uptake ([2]; Control (no inhibitor)): 2.4±0.2 % ID/5×10^5 cells
Cell uptake ([3]; 10 mM BCH): 1.9±0.1 % ID/5×10^5 cells
Cell uptake ([3]; 10 mM MeAIB): 0.4±0.1 % ID/5×10^5 cells
Cell uptake ([3]; Control (no inhibitor)): 1.5±0.2 % ID/5×10^5 cells
Cell uptake ([4]; 10 mM BCH): 3.5±0.2 % ID/5×10^5 cells
Cell uptake ([4]; 10 mM MeAIB): 0.6±0.1 % ID/5×10^5 cells
Cell uptake ([4]; Control (no inhibitor)): 2.7±0.3 % ID/5×10^5 cells
Cell uptake ([5]; 10 mM BCH): 1.5±0.2 % ID/5×10^5 cells
Cell uptake ([5]; 10 mM MeAIB): 0.5±0.2 % ID/5×10^5 cells
Cell uptake ([5]; Control (no inhibitor)): 1.4±0.1 % ID/5×10^5 cells
Cell uptake ([6]; 10 mM BCH): 4.5±0.7 % ID/5×10^5 cells
Cell uptake ([6]; 10 mM MeAIB): 0.5±0.2 % ID/5×10^5 cells
Cell uptake ([6]; Control (no inhibitor)): 3.9±0.6 % ID/5×10^5 cells
uptake in tumor ([7]; 15 min post injection): 5.3±1.9 %ID/g
uptake in liver ([7]; 30 min post injection): 7.5±1.5 %ID/g
uptake in spleen ([7]; 30 min post injection): 9.8±1.3 %ID/g
uptake in tumor ([7]; 30 min post injection): 6.3±1.3 %ID/g
uptake in liver ([7]; 60 min post injection): 5.2±0.3 %ID/g
uptake in liver ([8]; 15 min post injection): 7.8±1.2 %ID/g
uptake in tumor ([8]; 15 min post injection): 5.2±1.2 %ID/g
uptake in pancreas ([8]; 30 min post injection): 53±17 %ID/g
uptake in spleen ([8]; 120 min post injection): 7.4±1.6 %ID/g
uptake in pancreas ([9]; 15 min post injection): 74±11 %ID/g
uptake in tumor ([9]; 30 min post injection): 5.9±1.1 %ID/g
uptake in kidney ([9]; 60 min post injection): 6.8±1.3 %ID/g
uptake in liver ([9]; 60 min post injection): 6.8±1.3 %ID/g
uptake in tumor ([9]; 60 min post injection): 5.8±0.8 %ID/g
uptake in spleen ([9]; 120 min post injection): 6.1±0.5 %ID/g
uptake in pancreas ([10]; 15 min post injection): 59±3.3 %ID/g
uptake in kidney ([10]; 60 min post injection): 5.9±0.8 %ID/g
uptake in spleen ([10]; 120 min post injection): 6.6±0.8 %ID/g
uptake in tumor ([11]; 60 min post injection): 7.5±1.8 %ID/g
uptake in spleen ([11]; 120 min post injection): 6.8±0.6 %ID/g
inhibition of uptake by BCH ([12]; 10 mM BCH, relative to control, most cell lines): no BCH inhibition was observed in most cases
inhibition of uptake by MeAIB ([12]; 10 mM MeAIB, relative to control, most cell lines): 50-91%
uptake in tumor cells ([12]; 30 minutes incubation, without inhibitors, range over the cell lines): 1-7 %ID/5×10^5 cells
amino acid transport system mediating uptake / selectivity ([12]; AAT cell inhibition assays with MeAIB and BCH): high selectivity for system A AAT; also recorded: the most selective for system A transport
ratio of tumor to muscle [13]: > 4

fold higher brain uptake than [18F]1 ([14]; [18F]FET in nude mice vs [18F]1 in SCID mice): 2.5-3.5 fold
fold higher brain uptake than [18F]2 ([14]; [18F]FET in nude mice vs [18F]2 in SCID mice): 7-14 fold
SMILES: N[C@@H](Cc1ccc(OCC[18F])cc1)C(=O)O [[^18F]FET, O-(2-[^18F]fluoroethyl)-L-tyrosine]
